Consider twelve compounds from patent publication US7098332B2, “5,8-Dihydro-6H-pyrido[2,3-d]pyrimidin-7-ones” (Hoffmann-La Roche Inc., priority 2002, dated 2006).

Holding throughout (assay type): biochemical
The target of one assay is PDGFR. The experiment in a line: PDGFR kinase HTRF assay. To be noted: 2.3 μM ATP. The procedure: (§1) To determine inhibition of KDR, FGFR, EGFR, and PDGFR activity, kinase assays were conducted using an HTRF (Homogeneous Time Resolved Fluorescence) assay. This assay is described in A. J. Kolb et. al., Drug Discovery Today, 1998, 3(7), p 333.
(§2) Kinase activity assays were performed in 96-well polypropylene plates (Falcon) with a total volume of 90 μL in each well. Each well contained 1 μM KDR substrate (Biotin-EEEEYFELVAKKKK), 1 nM activated KDR, and a test compound with one of 8 assay concentrations ranging from 100 μM to […] (1:5 serial dilution). The kinase activity assay was done in the presence of 100 mM HEPES, pH 7.4, 1 mM DTT, 0.1 mM Na2VO4, 25 mM MgCl2, 50 mM NaCl (from KDR stock solution), 1% DMSO (from compound), 0.3 mM ATP (at Km concentration) and 0.02% BSA. The reaction was incubated at 37° C. for 30 minutes. To stop the KDR reaction, 72 μL of reaction mixture was transferred into a STOP plate containing 18 μL of revelation buffer (20 mM EDTA, 50 mM HEPES, pH 7.4, 0.02% BSA, 10 nM Eu-labelled anti-pY antibody (final conc. 2 nM), and 100 nM streptavidin (final conc. 20 nM)). After mixing, 35 μL of solution was transferred into duplicate wells of a 384-well black plate (Costar), and read at 615/665 nm on a Wallac Victor 5 reader.
The PDGFR kinase activity assay was performed with 1 μM substrate (Biotin-EEEEYFELV), 1.0 nM PDGFR, test compounds, 100 mM HEPES, pH 7.4, 1 mM DTT, 5 mM MgCl2, 2 mM MnCl2, 1% DMSO, 2.3 μM ATP (Km for PDGFR), 0.1 mM Na2VO4, and 0.02% BSA. The rest of the assay was performed in the same manner as the KDR assay.
(§3) Compound IC50 values were determined from duplicate sets of data, and calculated by using Excel and fitting data to equation Y=[(a−b)/{1+(X/c)^d]+b, where a and b are enzyme activity in the presence of no test inhibitor compound and an infinite amount of inhibitor test compound, respectively, c is the IC50 and d is the hill constant of the compound response. The IC50 value is the concentration of test compound that reduces by 50% the enzyme activity under the test conditions described.
(In general: Time-resolved FRET reads energy transfer from a long-lived donor to a nearby acceptor.)

The target of another assay is EGFR (Homo sapiens, UniProt P00533). The assay can be described thus: EGFR kinase HTRF assay. The following applies: 0.5 μM ATP. The procedure: as §1, §2
The EGFR kinase activity assay was performed with 1 μM substrate (Biotin-EEEEYFELV), 1.5 nM EGFR, test compounds, 100 mM HEPES, pH 7.4, 1 mM DTT, 5 mM MgCl2, 2 mM MnCl2, 1% DMSO, 0.5 μM ATP (Km for EGFR), 0.1 mM Na2VO4, and 0.02% BSA. The rest of the assay was performed in the same manner as the KDR assay.
as §3

The next assay addresses T1, FGFR.
T1 construct: fused on or other part: GST tag
The experiment in a line: FGFR kinase HTRF assay. The following applies: 10 μM ATP. The procedure: as §1, §2
FGFR, EGFR, and PDGFR activity assays were carried out as described above for the KDR activity assay with the following differences. GST-tagged FGFR enzyme was activated at room temperature for 1 hour in the following activation buffer: 100 mM HEPES, pH 7.4, 50 mM NaCl, 20 mM MgCl2, and 4 mM ATP. The kinase activity assay was performed with 1 μM substrate (Biotin-EEEEYFELV), 1.5 nM activated FGFR, and test compound in the presence of 100 mM HEPES, 1 mM DTT, 0.4 mM MgCl2, 0.4 mM MnCl2, 50 mM NaCl, 1% DMSO, 10 μM ATP (Km=8.5 μM for FGFR), 0.1 mM Na2VO4, and 0.02% BSA, in a total volume of 90 μL. The rest of the assay was performed in the same manner as KDR assay.
as §3

Another assay has as its target T2, KDR (Homo sapiens, UniProt P35968).
T2 construct: EEE tag
The experiment in a line: KDR kinase HTRF assay. The following applies: 0.3 mM ATP. The method, then:
as §1
Prior to kinase reaction, recombinant EEE-tagged KDR was activated in the presence of activation buffer (50 mM HEPES, pH 7.4, 1 mM DTT, 10% glycerol, 150 mM NaCl, 0.1 mM EDTA, 26 mM MgCl2, and 4 mM ATP). The enzyme was incubated at 4° C. for 1 hour.
as §2, §3

T2 sequence (P35968 20-1356): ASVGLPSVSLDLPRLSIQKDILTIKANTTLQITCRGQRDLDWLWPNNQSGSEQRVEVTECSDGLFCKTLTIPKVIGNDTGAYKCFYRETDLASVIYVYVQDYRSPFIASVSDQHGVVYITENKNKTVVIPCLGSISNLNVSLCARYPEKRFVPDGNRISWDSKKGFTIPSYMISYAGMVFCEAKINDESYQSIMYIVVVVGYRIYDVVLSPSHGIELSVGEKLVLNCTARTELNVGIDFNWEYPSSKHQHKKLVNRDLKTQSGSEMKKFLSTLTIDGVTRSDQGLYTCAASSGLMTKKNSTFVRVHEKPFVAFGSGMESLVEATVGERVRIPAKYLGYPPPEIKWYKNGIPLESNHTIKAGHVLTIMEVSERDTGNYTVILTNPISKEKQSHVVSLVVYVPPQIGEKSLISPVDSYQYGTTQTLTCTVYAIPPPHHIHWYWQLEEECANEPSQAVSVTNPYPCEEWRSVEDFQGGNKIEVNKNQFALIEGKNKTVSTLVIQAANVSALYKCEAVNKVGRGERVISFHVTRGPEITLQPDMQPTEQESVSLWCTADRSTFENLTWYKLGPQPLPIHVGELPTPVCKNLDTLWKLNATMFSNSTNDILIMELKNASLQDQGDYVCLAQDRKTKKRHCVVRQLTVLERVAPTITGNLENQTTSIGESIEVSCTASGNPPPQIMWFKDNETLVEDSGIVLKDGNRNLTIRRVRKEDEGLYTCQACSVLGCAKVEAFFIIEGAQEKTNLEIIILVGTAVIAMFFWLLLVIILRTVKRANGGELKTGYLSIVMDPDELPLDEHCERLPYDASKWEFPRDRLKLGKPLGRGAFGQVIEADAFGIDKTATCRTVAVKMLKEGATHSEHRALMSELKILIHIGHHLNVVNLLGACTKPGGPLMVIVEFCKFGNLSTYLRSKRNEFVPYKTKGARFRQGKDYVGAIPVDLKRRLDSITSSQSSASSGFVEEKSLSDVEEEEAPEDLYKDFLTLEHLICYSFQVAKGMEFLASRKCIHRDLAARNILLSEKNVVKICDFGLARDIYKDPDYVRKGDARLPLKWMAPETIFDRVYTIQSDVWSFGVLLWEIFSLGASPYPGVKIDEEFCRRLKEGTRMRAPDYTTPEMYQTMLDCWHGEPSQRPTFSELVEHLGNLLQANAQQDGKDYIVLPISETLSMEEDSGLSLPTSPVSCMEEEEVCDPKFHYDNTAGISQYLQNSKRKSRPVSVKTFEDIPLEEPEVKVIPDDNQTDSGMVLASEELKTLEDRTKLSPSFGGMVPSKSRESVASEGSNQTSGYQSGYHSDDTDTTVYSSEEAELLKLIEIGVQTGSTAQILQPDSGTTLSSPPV
Sequence of EGFR (P00533 25-1210, species assumed): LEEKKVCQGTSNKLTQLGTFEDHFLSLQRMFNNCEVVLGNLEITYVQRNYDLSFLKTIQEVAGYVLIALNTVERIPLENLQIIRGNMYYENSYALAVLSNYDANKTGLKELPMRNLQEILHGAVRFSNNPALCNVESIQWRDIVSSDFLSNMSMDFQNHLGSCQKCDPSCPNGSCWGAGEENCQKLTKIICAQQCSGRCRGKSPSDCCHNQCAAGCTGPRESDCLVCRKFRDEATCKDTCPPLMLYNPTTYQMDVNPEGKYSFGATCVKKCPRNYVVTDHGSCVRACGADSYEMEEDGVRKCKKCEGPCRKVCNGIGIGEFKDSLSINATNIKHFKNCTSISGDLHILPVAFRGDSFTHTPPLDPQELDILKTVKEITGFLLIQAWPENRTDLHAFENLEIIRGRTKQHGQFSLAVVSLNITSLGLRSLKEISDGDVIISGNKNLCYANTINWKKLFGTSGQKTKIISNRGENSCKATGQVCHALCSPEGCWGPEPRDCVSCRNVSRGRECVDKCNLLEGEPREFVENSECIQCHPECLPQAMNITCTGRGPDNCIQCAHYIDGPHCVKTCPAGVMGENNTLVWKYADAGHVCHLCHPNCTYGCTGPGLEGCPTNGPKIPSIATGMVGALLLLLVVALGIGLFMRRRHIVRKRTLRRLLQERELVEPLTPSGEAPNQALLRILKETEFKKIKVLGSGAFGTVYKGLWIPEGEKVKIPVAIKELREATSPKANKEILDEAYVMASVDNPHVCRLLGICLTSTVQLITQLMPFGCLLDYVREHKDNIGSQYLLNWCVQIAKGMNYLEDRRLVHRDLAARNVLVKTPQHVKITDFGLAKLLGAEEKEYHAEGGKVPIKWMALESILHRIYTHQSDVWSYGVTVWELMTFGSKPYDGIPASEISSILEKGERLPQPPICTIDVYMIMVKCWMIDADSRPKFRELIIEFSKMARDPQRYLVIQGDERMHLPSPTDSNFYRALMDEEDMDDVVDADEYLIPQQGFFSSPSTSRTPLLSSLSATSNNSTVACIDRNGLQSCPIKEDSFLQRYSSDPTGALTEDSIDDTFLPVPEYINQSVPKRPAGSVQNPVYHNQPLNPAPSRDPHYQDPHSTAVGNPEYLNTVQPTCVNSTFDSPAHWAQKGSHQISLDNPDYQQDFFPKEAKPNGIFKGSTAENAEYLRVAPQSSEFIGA

Broadly, the IC50 is the midpoint of a concentration-inhibition curve. As to `COc1ccc(C2Cc3cnc(Nc4ccccc4)nc3N(c3ccccc3)C2=O)cc1` (stereo not drawn) [Example 1f, 6-(4-Methoxy-phenyl)-8-phenyl-2-phenylamino-5,8-dihydro-6H-pyrido[2,3-d]pyrimidin-7-one], the IC50 on PDGFR, against EGFR, against FGFR and at KDR was < 10 µM each time.
As to `Cc1ccccc1C1Cc2cnc(Nc3ccccc3)nc2N(c2ccccc2)C1=O` (stereo not drawn) [Example 4c, 8-Phenyl-2-phenylamino-6-O-tolyl-5,8-dihydro-6H-pyrido[2,3-d]pyrimidin-7-one], the IC50 against PDGFR, against EGFR, against FGFR and against KDR was < 10 µM each time.
For the compound `O=C1C(c2ccccc2)Cc2cnc(Nc3ccccc3)nc2N1c1ccccc1` (stereo not drawn) [Example 5c, 6,8-Diphenyl-2-phenylamino-5,8-dihydro-6H-pyrido[2,3-d]pyrimidin-7-one], the IC50 at PDGFR, against EGFR, against FGFR and against KDR was < 10 µM in each case.
Regarding `COc1ccc(OC)c(C2Cc3cnc(Nc4ccccc4)nc3N(c3ccccc3)C2=O)c1` (stereo not drawn) [Example 6c, 6-(2,5-Dimethoxy-phenyl)-8-phenyl-2-phenylamino-5,8-dihydro-6H-pyrido[2,3-d]pyrimidin-7-one], the IC50 at PDGFR, against EGFR, against FGFR and at KDR was < 10 µM in each case.
As for `COc1ccccc1C1Cc2cnc(Nc3ccccc3)nc2N(c2ccccc2)C1=O` (stereo not drawn) [Example 7c, 6-(2-Methoxy-phenyl)-8-phenyl-2-phenylamino-5,8-dihydro-6H-pyrido[2,3-d]pyrimidin-7-one], the IC50 against PDGFR, against EGFR, on FGFR and on KDR was < 10 µM in each case.
`O=C1C(c2cc(C(F)(F)F)cc(C(F)(F)F)c2)Cc2cnc(Nc3ccccc3)nc2N1c1ccccc1` (stereo not drawn) [Example 8d, 6-(3,5-Bis-trifluromethyl-phenyl)-8-phenyl-2-phenylamino-5,8-dihydro-6H-pyrido[2,3-d]pyrimidin-7-one]: the IC50 was < 10 µM at PDGFR, > 10 µM at EGFR, > 10 µM at FGFR and > 10 µM against KDR.
On to `O=C1C(c2ccncc2)Cc2cnc(Nc3ccccc3)nc2N1c1ccccc1` (stereo not drawn) [Example 9c, 8-Phenyl-2-phenylamino-6-pyridin-4-yl-5,8-dihydro-6H-pyrido[2,3-d]pyrimidin-7-one], for which the IC50 against PDGFR was > 10 µM; at EGFR it was < 10 µM; on FGFR, > 10 µM; at KDR, < 10 µM.
For the compound `O=C1C(c2cccnc2)Cc2cnc(Nc3ccccc3)nc2N1c1ccccc1` (stereo not drawn) [Example 10c, 8-Phenyl-2-phenylamino-6-pyridin-3-yl-5,8-dihydro-6H-pyrido[2,3-d]pyrimidin-7-one], the IC50 at PDGFR, against EGFR, on FGFR and against KDR was < 10 µM throughout.
Consider `COc1ccc(C2Cc3cnc(Nc4ccccc4)nc3N(c3ccccc3)C2=O)cc1OC` (stereo not drawn) [Example 11c, 6-(3,4-Dimethoxy-phenyl)-8-phenyl-2-phenylamino-5,8-dihydro-6H-pyrido[2,3-d]pyrimidin-7-one], for which the IC50 on PDGFR is < 10 µM; against EGFR it was > 10 µM; on FGFR it was < 10 µM; at KDR, < 10 µM.
In the case of `COc1ccc(C2Cc3cnc(Nc4ccc(OC)nc4)nc3N(c3ccccc3)C2=O)cc1` (stereo not drawn) [Example 12d, 6-(4-Methoxy-phenyl)-2-(6-methoxy-pyridin-3-ylamino)-8-phenyl-5,8-dihydro-6H-pyrido[2,3-d]pyrimidine-7-one], the IC50 against PDGFR, against EGFR, at FGFR and at KDR was < 10 µM throughout.
Take `COc1ccc(C2Cc3cnc(Nc4ccccc4)nc3N(CC(C)C)C2=O)cc1` (stereo not drawn) [Example 13b, 8-Isobutyl-6-(4-methoxy-phenyl)-2-phenylamino-5,8-dihydro-6H-pyrido[2,3-d]pyrimidine-7-one]: the IC50 at PDGFR, against EGFR, against FGFR and against KDR was < 10 µM each time.
Consider `COc1ccc(C2Cc3cnc(Nc4ccccc4)nc3N(CC3CC3)C2=O)cc1` (stereo not drawn) [Example 14b, 8-Cyclopropylmethyl-6-(4-methoxy-phenyl)-2-phenylamino-5,8-dihydro-6H-pyrido[2,3-d]pyrimidine-7-one], for which the IC50 against PDGFR, against EGFR, at FGFR and at KDR was < 10 µM in each case.
